Test results reported in patent US20260042762A1 (Kymera Therapeutics, Inc., priority 2018, published 2026).
Where a name gives a salt, the structure may show the parent alone.

Molecular target: T1, MerTK (Homo sapiens, UniProt Q12866)
T1 construct: endogenous in cells; host or cells: Jurkat cells
T1 sequence (Q12866 21-999): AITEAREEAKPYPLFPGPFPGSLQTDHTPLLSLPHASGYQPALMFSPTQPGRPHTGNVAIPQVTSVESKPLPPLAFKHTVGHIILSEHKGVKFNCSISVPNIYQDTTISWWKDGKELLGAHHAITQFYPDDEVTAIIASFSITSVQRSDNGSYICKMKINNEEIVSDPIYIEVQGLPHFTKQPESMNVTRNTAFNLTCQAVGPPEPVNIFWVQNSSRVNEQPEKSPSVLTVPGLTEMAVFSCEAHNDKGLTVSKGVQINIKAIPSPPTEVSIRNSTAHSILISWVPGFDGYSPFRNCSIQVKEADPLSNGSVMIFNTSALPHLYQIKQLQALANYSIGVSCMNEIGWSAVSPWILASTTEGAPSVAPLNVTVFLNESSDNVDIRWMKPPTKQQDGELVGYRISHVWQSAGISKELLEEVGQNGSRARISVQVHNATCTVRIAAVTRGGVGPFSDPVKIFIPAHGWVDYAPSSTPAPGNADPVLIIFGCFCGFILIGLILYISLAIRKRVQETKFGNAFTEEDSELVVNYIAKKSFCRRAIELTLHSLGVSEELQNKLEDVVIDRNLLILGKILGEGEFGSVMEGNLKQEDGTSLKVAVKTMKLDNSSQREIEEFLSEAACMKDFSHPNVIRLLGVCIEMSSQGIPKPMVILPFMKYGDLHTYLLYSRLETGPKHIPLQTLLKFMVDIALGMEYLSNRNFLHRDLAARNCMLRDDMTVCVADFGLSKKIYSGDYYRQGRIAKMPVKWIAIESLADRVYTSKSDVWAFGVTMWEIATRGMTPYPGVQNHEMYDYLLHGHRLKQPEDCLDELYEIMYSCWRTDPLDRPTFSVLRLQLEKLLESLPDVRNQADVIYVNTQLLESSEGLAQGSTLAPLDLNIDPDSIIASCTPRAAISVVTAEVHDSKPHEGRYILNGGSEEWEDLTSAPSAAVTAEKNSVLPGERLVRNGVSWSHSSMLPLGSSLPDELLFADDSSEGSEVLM
Experiment: MerTk degradation in Jurkat cells (Western blot)
Type: cell-based
Details: Jurkat, 4 h, 0.001-1 μM, 4 hour-incubation at 37° C., read-out: Jurkat Max % MerTK Degradation
How it was run: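 MerTK degradation was read by near-infrared Western blot, normalized to actin, in BCA-quantified lysates of Jurkat cells exposed to 0.001-1 μM compound for 4 h at 37 °C.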

Structure (SMILES) | Dmax [%]
Cn1c(=O)n([C@H]2CCC(=O)NC2=O)c2ccc(CCCOCCCOCCCNCc3ccc(-c4cn([C@H]5CC[C@H](O)CC5)c5nc(NCCC(F)(F)F)ncc45)cc3)cc21 [I-51, 3-(3-methyl-2-oxo-5-[3-[3-(3-[[(4-[7-[trans-4-hydroxycyclohexy1]-2-[(3,3,3-trifluoropropyl)amino]-7H-pyrrolo[2,3-d]pyrimidin-5-yl]phenyl)methyl]amino]propoxy)propoxy]propyl]-2,3-dihydro-1H-1,3-benzodiazol-1-y1)piperidine-2,6-dione hydrochloride] | > 50
CCC[C@H](C)Nc1ncc2c(-c3ccc(CN4CCN(C5CC(OCCc6ccc7c(c6)n(C)c(=O)n7C6CCC(=O)NC6=O)C5)CC4)cc3)cn([C@H]3CC[C@@](C)(O)CC3)c2n1 (stereo partly drawn) [I-187, 3-[3-methyl-2-oxo-5-[2-(3-[4-[(4-[2-[(2S)-pentan-2-ylamino]-7-[cis-4-hydroxy-4-methylcyclohexyl]pyrrolo[2,3-d]pyrimidin-5-yl]phenyl)methyl]piperazin-1-yl]cyclobutoxy)ethyl]-1,3-benzodiazol-1-yl]piperidine-2,6-dione; formic acid] | > 50
Cn1c(=O)n([C@H]2CCC(=O)NC2=O)c2ccc(CCOC3CN(C4CCN(Cc5ccc(-c6cn([C@H]7CC[C@H](O)CC7)c7nc(NCCC(F)(F)F)ncc67)cc5)CC4)C3)cc21 [I-144, 3-(3-methyl-2-oxo-5-[2-[(1-[1-[(4-[7-[trans-4-hydroxycyclohexy1]-2-[(3,3,3-trifluoropropyl)amino]pyrrolo[2,3-d]pyrimidin-5-yl]phenyl)methyl]piperidin-4-yl]azetidin-3-yl)oxy]ethyl]-1,3-benzodiazol-1-yl)piperidine-2,6-dione; formic acid] | > 50
Cn1c(=O)n([C@H]2CCC(=O)NC2=O)c2ccc(CCCOCCOCCN3CCN(C[C@H]4CC[C@@H](c5cn([C@H]6CC[C@H](O)CC6)c6nc(NCCC(F)(F)F)ncc65)CC4)CC3)cc21 [I-153, 3-[3-methyl-2-oxo-5-(3-[2-[2-(4-[[(1s,4s)-4-[7-[trans-4-hydroxycyclohexyl]-2-[(3,3,3-trifluoropropyl)amino]pyrrolo[2,3-d]pyrimidin-5-yl]cyclohexyl]methyl]piperazin-1-yl)ethoxy]ethoxy]propyl)-1,3-benzodiazol-1-yl]piperidine-2,6-dione] | > 50
C[C@H](CC(F)(F)F)Nc1ncc2c(-c3ccc(CN4CCN(CCCOC5CN(Cc6ccc7c(c6)n(C)c(=O)n7C6CCC(=O)NC6=O)C5)CC4)cc3)cn([C@H]3CC[C@H](O)CC3)c2n1 (stereo partly drawn) [I-200, trans-3-(3-methyl-2-oxo-5-[[3-(3-[4-[(4-[7-[4-hydroxycyclohexyl]-2-[[(2R)-4,4,4-trifluorobutan-2-yl]amino]pyrrolo[2,3-d]pyrimidin-5-yl]phenyl)methyl]piperazin-1-yl]propoxy)azetidin-1-y1]methyl]-1,3-benzodiazol-1-y1)piperidine-2,6-dione; tris(formic acid)] | > 50
Cn1c(=O)n([C@H]2CCC(=O)NC2=O)c2ccc(CCOCCN3CCC(N4CCN(Cc5ccc(-c6cn([C@H]7CC[C@H](O)CC7)c7nc(NCCC(F)(F)F)ncc67)cc5)CC4)CC3)cc21 [I-130, 3-(3-methyl-2-oxo-5-[2-[2-(4-[4-[(4-[7-[trans-4-hydroxycyclohexyl]-2-[(3,3,3-trifluoropropyl)amino]-7H-pyrrolo[2,3-d]pyrimidin-5-yl]phenyl)methyl]piperazin-1-yl]piperidin-1-y1)ethoxy]ethyl]-2,3-dihydro-1H-1,3-benzodiazol-1-y1)piperidine-2,6-dione] | > 50
Cn1c(=O)n([C@H]2CCC(=O)NC2=O)c2ccc(CCCC3CCN(C4CCN(Cc5ccc(-c6cn([C@H]7CC[C@H](O)CC7)c7nc(NCCC(F)(F)F)ncc67)cc5)CC4)CC3)cc21 [I-145, 3-[3-methyl-2-oxo-5-(3-[1-[(4-[7-[trans-4-hydroxycyclohexyl]-2-[(3,3,3-trifluoropropyl)amino]pyrrolo[2,3-d]pyrimidin-5-yl]phenyl)methyl]-[1,4-bipiperidin]-4-yl]propyl)-1,3-benzodiazol-1-y1]piperidine-2,6-dione; formic acid] | > 50
Cn1c(=O)n([C@H]2CCC(=O)NC2=O)c2ccc(CCCOCCCOCCN3CCN(Cc4ccc(-c5cn([C@H]6CC[C@H](O)CC6)c6nc(NCCC(F)(F)F)ncc56)cc4)CC3)cc21 [I-78, 3-(3-methyl-2-oxo-5-[3-[3-(2-[4-[(4-[7-[trans-4-hydroxycyclohexyl]-2-[(3,3,3-trifluoropropyl)amino]-7H-pyrrolo[2,3-d]pyrimidin-5-yl]phenyl)methyl]piperazin-1-yl]ethoxy)propoxy]propy1]-2,3-dihydro-1H-1,3-benzodiazol-1-yl)piperidine-2,6-dione; formic acid] | > 50
Cn1c(=O)n(C2CCC(=O)NC2=O)c2ccc(C#CCOCCN3CCCC(N4CCN(Cc5ccc(-c6cn([C@H]7CC[C@H](O)CC7)c7nc(NCCC(F)(F)F)ncc67)cc5)CC4)C3)cc21 (stereo partly drawn) [I-87, 3-(3-methyl-2-oxo-5-[3-[2-(3-[4-[(4-[7-[trans-4-hydroxycyclohexyl]-2-[(3,3,3-trifluoropropyl)amino]-7H-pyrrolo[2,3-d]pyrimidin-5-yl]phenyl)methyl]piperazin-1-yl]piperidin-1-yl)ethoxy]prop-1-yn-1-y1]-2,3-dihydro-1H-1,3-benzodiazol-1-y1)piperidine-2,6-dione; formic acid] | > 50
Cn1c(=O)n([C@H]2CCC(=O)NC2=O)c2ccc(CCOCCN3CCN(Cc4cccc(-c5cn([C@H]6CC[C@H](O)CC6)c6nc(NCCC(F)(F)F)ncc56)c4)CC3)cc21 [I-146, 3-[3-methyl-2-oxo-5-[2-(2-[4-[(3-[7-[trans-4-hydroxycyclohexy1]-2-[(3,3,3-trifluoropropyl)amino]pyrrolo[2,3-d]pyrimidin-5-yl]phenyl)methyl]piperazin-1-yl]ethoxy)ethyl]-1,3-benzodiazol-1-yl]piperidine-2,6-dione] | > 50
CCCCNc1ncc2c(-c3ccc(S(=O)(=O)N4CCN(CCOCCOCCOCCOCCNc5cccc6c5C(=O)N(C5CCC(=O)NC5=O)C6=O)CC4)cc3)nn([C@H]3CC[C@H](O)CC3)c2n1 (stereo partly drawn) [I-34, 4-((14-(4-((4-(6-(butylamino)-1-(trans-4-hydroxycyclohexyl)-1H-pyrazolo[3,4-d]pyrimidin-3-yl)phenyl)sulfonyl)piperazin-1-yl)-3,6,9,12-tetraoxatetradecyl)amino)-2-(2,6-dioxopiperidin-3-yl)isoindoline-1,3-dione] | > 50
CCCCNc1ncc2c(-c3ccc(CN4CCN(CCOCCOCCOCCOCCNc5ccc6c(c5)n(C)c(=O)n6[C@H]5CCC(=O)NC5=O)CC4)cc3)cn([C@H]3CC[C@H](O)CC3)c2n1 [I-61, 3-(5-[15-[4-([4-[2-(butylamino)-7-[trans-4-hydroxycyclohexyl]-7H-pyrrolo[2,3-d]pyrimidin-5-yl]phenyl]methyl)piperazin-1-y1]-4,7,10,13-tetraoxa-1-azapentadecan-1-y1]-3-methyl-2-oxo-2,3-dihydro-1H-1,3-benzodiazol-1-y1)piperidine-2,6-dione; bis(formic acid)] | > 50
Cc1ncsc1-c1ccc(CNC(=O)[C@@H]2C[C@@H](O)CN2C(=O)[C@@H](NC(=O)CCCCCN2CCN(Cc3ccc(-c4cn([C@H]5CC[C@H](O)CC5)c5nc(NCCC(F)(F)F)ncc45)cc3)CC2)C(C)(C)C)cc1 [I-161, (2S,4R)-1-[(2S)-3,3-dimethyl-2-(6-[4-[(4-[7-[trans-4-hydroxycyclohexyl]-2-[(3,3,3-trifluoropropyl)amino]pyrrolo[2,3-d]pyrimidin-5-yl]phenyl)methyl]piperazin-1-yl]hexanamido)butanoyl]-4-hydroxy-N-[[4-(4-methyl-1,3-thiazol-5-yl)phenyl]methyl]pyrrolidine-2-carboxamide] | < 20
C[C@H](Nc1ncc2c(-c3ccc(CN4CCN(CCCCOCCCc5ccc6c(c5)n(C)c(=O)n6C5CCC(=O)NC5=O)CC4)cc3)cn([C@H]3CC[C@H](O)CC3)c2n1)C(F)F (stereo partly shown) [I-185] | > 50
Cn1c(=O)n(C2CCC(=O)NC2=O)c2ccc(CCCOCC(F)CN3CCN(Cc4ccc(-c5cn([C@H]6CC[C@H](O)CC6)c6nc(NCCC(F)(F)F)ncc56)cc4)CC3)cc21 (stereo partly drawn) [I-160, 3-[5-[3-(2-fluoro-3-[4-[(4-[7-[trans-4-hydroxycyclohexy1]-2-[(3,3,3-trifluoropropyl)amino]pyrrolo[2,3-d]pyrimidin-5-yl]phenyl)methyl]piperazin-1-yl]propoxy)propyl]-3-methyl-2-oxo-1,3-benzodiazol-1-yl]piperidine-2,6-dione] | > 50
COc1ccc(Nc2nc(Nc3cc(OCCOCCOCCOCCOCCNc4cccc5c4C(=O)N(C4CCC(=O)NC4=O)C5=O)c(OC)cc3C)ncc2Cl)c(NS(C)(=O)=O)c1 (stereo not shown) [I-231] | < 20
